Series [1] in a line: Hippocampus level of pterostilbene by GC-MS. The format is in vivo, mouse. Particulars: for Pterostilbene level in the hippocampus (± SD): mouse. As to the method:
(§1) After the EPM session, blood samples were taken from each mouse by submandibular vein puncture in heparinized blood collection vials. Mice were then sacrificed and brains quickly removed. Their prefrontal cortex (PFC) and hippocampus were dissected out on ice, and immediately frozen in liquid nitrogen and stored at −80° C. until further processing. Blood samples were centrifuged at 2000 rpm at 4° C. for 20 min to get the plasma as supernatant. The plasma samples were stored at −80° C. until used.
Hippocampus tissues were kept at −80° C. until time of extraction. Hippocampus (left and right) from 2-3 animals was combined in an Eppendorf tube, and processed as one sample. To the tube was added 200 μL phosphate buffer (0.2M NaH2PO4:0.2M Na2HPO4, and the tissues were homogenized manually for 2 minutes. To 100 μl aliquot, 50 μL β-glucuronidase (5000 U/mL potassium phosphate buffer) was added. The mixture was vortex-mixed, and incubated (37° C., 20 hours) while shaking (750 rpm). The samples were then centrifuged (15 min, 7000 g, 4° C.). The supernatant was collected and partitioned with ethyl acetate (200 μL, twice). The ethyl acetate layers were combined, dried under a stream of nitrogen, and used for GC-MS analysis. Extraction of the prefrontal cortex (PFC) was performed in the same manner as the hippocampus; PFC tissues from three animals were combined and treated as one sample.
(§2) The nitrogen-dried samples (plasma and brain tissue extracts) were treated with 30 μL of a 1:1 mixture of N,O-bis[trimethylsilyl]trifluoroacetamide and dimethylformamide (Pierce Biotechnology, Inc., Rockford, Ill.) and heated at 70° C. for 40 min. The derivatized samples were analyzed for levels of pterostilbene using a JEOL GCMate II Instrument (JEOL USA Inc., Peabody, Mass.) equipped with a J&W DB-5 capillary column (0.25 mm internal diameter, 0.25 μm film thickness, and 30 m length; Agilent Technologies, Foster City, Calif.). […] The carrier gas was ultrahigh purity helium, at 1 mL/min flow rate. The injection port, GC-MS interface, and ionization chamber were kept at 250, 230, and 230° C., respectively. The volume of injection was 2 μL (splitless injection). The mass spectrum was acquired in the positive, selected ion-monitoring mode (m/z 328, 313, and 297); electron impact 70 eV. GC-MS analyses were in duplicates. The retention time of pterostilbene was 10.2 min. Quantitation of pterostilbene was done using an external standard of a synthetic sample of pterostilbene previously characterized for structure and purity.

Another series relates to Swiss Webster mice. As to the kind of experiment: Spontaneous motor (locomotor) activity. The class given is in vivo, mouse. Here is the method: To measure spontaneous motor activity, adult Swiss Webster mice (n=8-10/group) were administered with pterostilbene by oral gavage. Each mouse was then placed in the locomotor chamber and acclimated in the Plexiglas enclosure for 30 min. After the 30 min acclimation period, locomotor activity was measured for 30 min using an automated activity monitoring system (San Diego Instruments, CA, USA). Total activity was expressed as the total number of interruptions of 16 cell photobeams per chamber.

Series [2] is described as follows: Plasma level of pterostilbene by GC-MS. The format is in vivo. Particulars: mouse, after EPM session; for concentration at 65 min: Swiss Webster, plasma, oral, read-out: Pterostilbene level in the plasma (± SD). As to the method: as §1
Plasma were kept at −80° C., and thawed on ice prior to extraction. Plasma were treated with β-glucuronidase, to hydrolyze any glucuronidated pterostilbene, following published procedures (Remsberg et al., supra). Briefly, 50 μL plasma (from each animal) was transferred to an Eppendorf tube, and 60 μL of β-glucuronidase solution (5000 U/mL potassium phosphate buffer, 75 mM, pH 6.8 at 37° C.) was added. The mixture was vortex-mixed then incubated at 37° C. while shaking at 750 rpm for 20 hrs. Thereafter, ice-cold HPLC grade acetonitrile was added, vortex-mixed, and centrifuged for 5 min at 5000 rpm, 4° C. The supernatant was collected, and dried under a stream of nitrogen. The dried supernatant was used for GC-MS analysis.
as §2

For series [3] the following is noted: in vivo; cited from earlier work.
Series [4] can be described thus: Prefrontal cortex level of pterostilbene by GC-MS. The format is in vivo, mouse. To be noted: all the doses administered (1-10 mg/kg p.o.). Here is the method:
as §1
Hippocampus tissues were kept at −80° C. until time of extraction. Hippocampus (left and right) from 2-3 animals was combined in an Eppendorf tube, and processed as one sample. […]
The nitrogen-dried samples (plasma and brain tissue extracts) were treated with 30 μL of a 1:1 mixture of N,O-bis[trimethylsilyl]trifluoroacetamide and dimethylformamide (Pierce Biotechnology, Inc., Rockford, Ill.) and heated at 70° C. for 40 min. The derivatized samples were analyzed for levels of pterostilbene using a JEOL GCMate II Instrument (JEOL USA Inc., Peabody, Mass.) equipped with a J&W DB-5 capillary column (0.25 mm internal diameter, 0.25 μm film thickness, and 30 m length; Agilent Technologies, Foster City, Calif.). […] Quantitation of pterostilbene was done using an external standard of a synthetic sample of pterostilbene previously characterized for structure and purity.

Data on one compound can be found in patent US9439875B2, “Anxiolytic effect of pterostilbene” (The United States of America, as represented by The …, priority 2011, dated 2016).

Values joined by “and” are separate entries in the source; they are usually repeats but may differ in a detail not shown here. Equal entries are not always repeated. “Also recorded” adds a separate entry of the source. Where two headings read alike, the source gives them in different places.

Regarding `COc1cc(/C=C/c2ccc(O)cc2)cc(OC)c1` [pterostilbene], the “Pterostilbene level in the hippocampus (± SD)” value was 0.2627 ± 0.0230 ng/hippocampus in series [1] (2 mg/kg BW p.o.); 0.5314 ± 0.1830 ng/hippocampus in series [1] (5 mg/kg BW p.o.); 1.1217 ng/hippocampus and 1.1217 ± 0.1322 ng/hippocampus in series [1] (10 mg/kg BW p.o.). Also, the “Pterostilbene level in the hippocampus” value in series [1] (range over 2, 5 and 10 mg/kg doses) is 0.2627-1.1217 ng/hippocampus. In the series with Swiss Webster mice (1-10 mg/kg by oral gavage, one-way ANOVA), the “locomotor activity (total number of photobeam interruptions per chamber)” value was “no stimulant or depressive actions; also recorded: no significant effect”. For the same compound, the “sedating tendency in EPM and locomotor activity monitoring chambers” value with Swiss Webster mice (higher doses) was “did not show any sedating tendency”. In addition, the locomotor activity result in the series on Swiss Webster mice (highest dose (10 mg/kg)) is “didn't have any effect”. Further, in the series with Swiss Webster mice (maximal anxiolytic dose (2 mg/kg), post hoc comparison), the spontaneous motor activity entry is reported as “not affected”. In addition, the “Pterostilbene level in the plasma (± SD)” value in series [2] (1 mg/kg BW p.o.) was 10.0887 ± 6.6699 ng/mL; in series [2] (10 mg/kg BW p.o.), 130.2651 ± 40.2558 ng/mL. Further, the concentration at 65 min in series [2] (1 mg/kg BW, 1 mg/kg BW p.o.) is 10.1 ± 6.67 ng/mL; in series [2] (2 mg/kg BW, 2 mg/kg BW p.o.) it was 27 ± 7.27 ng/mL; in series [2] (5 mg/kg BW, 5 mg/kg BW p.o.), 72 ± 19 ng/mL; in series [2] (10 mg/kg BW, 10 mg/kg BW p.o.), 130 ± 40.2 ng/mL. Further, in series [3], the half-life result is “approximately 2 hr”. The “Pterostilbene level in the pre-frontal cortex tissues” value in series [4] was “trace levels”.
